Here are results for 33 compounds from patent US6794396B2, “Substituted pyridines useful for inhibiting cholesteryl ester transfer protein activity” (Pharmacia Corporation, priority 1998, dated 2004).

Usually IC50 stands for the midpoint of a concentration-inhibition curve.

The target of one experiment is T1, CETP (Homo sapiens, UniProt P11597).
T1 construct: made in house; host or cells: CHO cells (serum-free conditioned medium)
T1 sequence (P11597 18-493): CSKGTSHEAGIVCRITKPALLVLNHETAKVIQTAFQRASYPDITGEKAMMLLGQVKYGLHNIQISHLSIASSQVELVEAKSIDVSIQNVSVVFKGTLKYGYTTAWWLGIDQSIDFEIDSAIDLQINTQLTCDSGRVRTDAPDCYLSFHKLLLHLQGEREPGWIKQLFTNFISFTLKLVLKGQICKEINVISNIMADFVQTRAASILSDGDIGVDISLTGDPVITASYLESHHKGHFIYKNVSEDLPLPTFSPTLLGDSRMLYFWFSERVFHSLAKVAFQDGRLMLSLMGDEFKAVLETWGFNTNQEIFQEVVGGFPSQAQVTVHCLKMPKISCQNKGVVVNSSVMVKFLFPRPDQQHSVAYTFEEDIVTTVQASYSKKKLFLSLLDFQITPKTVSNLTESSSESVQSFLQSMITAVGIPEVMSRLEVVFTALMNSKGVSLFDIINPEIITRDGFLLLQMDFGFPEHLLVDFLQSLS
Nature of the experiment: CETP activity in vitro: transfer of [3H]CE from HDL donor to LDL acceptor particles. It is filed as biochemical. The settings on record: 50% inhibition of [3H]CE transfer from HDL to LDL, 2 hours at 37° C.; read-out: IC50(μm). The method, then: The ability of compounds to inhibit CETP were assessed using an in vitro assay that measured the rate of transfer of radiolabeled cholesteryl ester ([^3H]CE) from HDL donor particles to LDL acceptor particles. Details of the assay are provided by Glenn et al. (“Quantification of Cholesteryl Ester Transfer Protein (CETP): A) CETP Activity and B) Immunochemical Assay of CETP Protein,” Meth. Enzymol., Glenn and Melton (Meth. Enzymol., 263, 339-351 (1996), which is incorporated herein by reference). CETP was obtained from the serum-free conditioned medium of CHO cells transfected with a cDNA for CETP (Wang, S. et al. J. Biol Chem. 267, 17487-17490 (1992), which is incorporated herein by reference).
To measure CETP activity, [^3H]CE-labeled HDL, LDL, CETP and assay buffer (50 mM tris(hydroxymethyl)amino-methane, pH 7.4; 150 mM sodium chloride; 2 mM ethylenediamine-tetraacetic acid; 1% bovine serum albumin) were incubated in a volume of 200 μl, for 2 hours at 37° C. in 96 well plates. LDL was differentially precipitated by the addition of 50 μl of 1% (w/v) dextran sulfate/0.5 M magnesium chloride, mixed by vortex, and incubated at room temperature for 10 minutes The solution (200μl) was transferred to a filter plate (Millipore). After filtration, the radioactivity present in the precipitated LDL was measured by liquid scintillation counting.
This value was defined as the IC50.
On to `CCOC(=O)c1c(C(F)(F)F)nc(C(F)(F)F)c(C)c1OC(C)C` [Compound 53, Ethyl 2,6-Bis(trifluoromethyl)-4-(isopropoxy)-5-methyl-3-pyridinecarboxylate], for which the IC50 came out at 50 µM. For `CCOC(=O)c1c(C(F)(F)F)nc(C(F)F)c(NC(=O)Nc2c(C(F)F)nc(C(F)(F)F)c(C(=O)OCC)c2CC)c1CC` [Compound 48], the IC50 is 50 µM. For `COC(=O)c1c(C(F)F)nc(C(F)(F)F)c(N=C=S)c1CC(C)C` [Compound 18], the 50% inhibitory concentration (IC50) amounted to 35 µM. Turning to `COC(=O)c1cc(CSC(=S)N(C)C)c(C(F)(F)F)nc1C(F)F` [Compound 43, Methyl 2-(Difluoromethyl)-5-[(dimethylaminothionothio)methyl]-6-(trifluoromethyl)-3-pyridinecarboxylate], the IC50 was 50 µM.

`COC(=O)c1c(C(F)F)nc(C(F)(F)F)c(C(N)=S)c1CC(C)C` [Compound 77, Methyl 2-(Difluoromethyl)-4-(2-methylpropyl)-5-(aminothionocarbonyl)-6-(trifluoromethyl) -3-pyridinecarboxylate]: the IC50 was found to be 70 µM.

The experiment is the same for the next values; noted with them: 2 h; read-out: % Transfer @ 100 μm.
As for `COC(=O)c1c(C(F)F)nc(C(F)(F)F)c(NC(=O)c2sc(Cl)nc2C(F)(F)F)c1CC(C)C` [Compound 117, Methyl {-[2-Chloro-4-(trifluoromethyl)-5-thiazolyl]carbonylamino}-2-(difluoromethyl)-4-(2-methylpropyl)-6-(trifluoromethyl)-3-pyridinecarboxylate], the remaining activity at 100 µM is 83%.

For the compound `COC(=O)c1c(C(F)F)nc(C(F)(F)F)c(C(N)=S)c1C1CCC1` [Compound 119, Methyl 5-(aminothioxomethyl)-4-(cyclobutyl)-2-(difluoromethyl)-6-(trifluoromethyl)-3-pyridinecarboxylate], the remaining activity at 100 µM stood at 84%.

Staying with this experiment, now noted: IC50(μm), 50% inhibition of [3H]CE transfer from HDL to LDL, 2 hours at 37° C.
In turn, `COC(=O)c1c(C(F)F)nc(C(F)(F)F)c(N=C(CBr)OC)c1CC(C)C` [Compound 16] had an IC50 of 30 µM. On the same count and under the same terms, as for `COC(=O)c1c(C(F)F)nc(C(F)(F)F)c(C(=O)SC(C)C)c1C1CCC1` [Compound 14, Methyl 2-(Difluoromethyl)-5-[(i-propylthio)carbonyl]-4-(cyclobutyl)-6-(trifluoromethyl)-3-pyridinecarboxylate], the figure is 30 µM; as for `COC(=O)c1c(C(F)F)nc(C(F)(F)F)c(C2OCCCO2)c1CC(C)C` [Compound 59, Methyl 2-(Difluoromethyl)-5-(1,3-dioxan-2-yl)-4-(2-methylpropyl)-6-(trifluoromethyl)-3-pyridinecarboxylate], 55 µM.

The same experiment, now with this note: IC50, Table 5, compounds of formula T-5.
Take `COC(=O)c1c(C(F)F)nc(C(F)(F)F)c(SC(=O)c2c(C(F)(F)F)nc(C(F)F)c(C(=O)OC)c2CC(C)C)c1CC(C)C` [Compound 183, Methyl 5-{[2-(Difluoromethyl)-4-(2-methylpropyl)-3-(methoxycarbonyl)-6-(trifluoromethyl)-5-pyridyl]carbonylthio}-2-(difluoromethyl)-4-(2-methylpropyl)-6-(trifluoromethyl)-3-pyridinecarboxylate]: the IC50 is 50 µM.

The experiment is the same for the next values; noted with them: IC50, Table 6, compounds of formula T-6.
Regarding `COC(=O)c1c(C(F)F)nc(C(F)(F)F)c(CSc2ccc(Cl)cc2)c1CC(C)C` [Compound 185, Methyl 5-[(4-Chlorophenyl)thiomethyl]-2-(difluoromethyl)-4-(2-methylpropyl)-6-(trifluoromethyl)-3-pyridinecarboxylate], the IC50 is 10 µM.

The same experiment, now with this note: Table 5, compounds of formula T-5; read-out: IC50.
`COC(=O)c1c(C(F)F)nc(C(F)(F)F)c(CSc2c(C(F)(F)F)nc(C(F)F)c(C(=O)OC)c2CC(C)C)c1CC(C)C` [Compound 182, Methyl 5-{[3-(Carbomethoxy)-2-(difluoromethyl)-4-isobutyl-6-(trifluoromethyl)-5-pyridyl]thiomethyl}-2-(difluoromethyl)-4-isobutyl-6-(trifluoromethyl)-3-pyridinecarboxylate]: the IC50 turned out to be 19 µM.

Still in this experiment, the particulars now being: Table 6, compounds of formula T-6; read-out: IC50.
With `COC(=O)c1c(C(F)F)nc(C(F)(F)F)c(CSc2c(Cl)cccc2Cl)c1CC(C)C` [Compound 201, Methyl 5-[(2,6-Dichlorophenyl)thiomethyl]-2-(difluoromethyl)-4-(2-methylpropyl)-6-(trifluoromethyl)-3-pyridinecarboxylate], the IC50 came to 30 µM. Same read-out and setting: as for `COC(=O)c1c(C(F)F)nc(C(F)(F)F)c(CSc2ccc(OC)cc2)c1CC(C)C` [Compound 199, Methyl 5-[(4-Methoxyphenyl)thiomethyl]-2-(difluoromethyl)-4-(2-methylpropyl)-6-(trifluoromethyl)-3-pyridinecarboxylate], the figure is 20 µM; as for `COC(=O)c1c(C(F)F)nc(C(F)(F)F)c(CSc2ccc3ccccc3n2)c1CC(C)C` [Compound 192, Methyl 5-[(Quinolin-2-yl)thiomethyl]-2-(difluoromethyl)-4-(2-methylpropyl)-6-(trifluoromethyl)-3-pyridinecarboxylate], 40 µM.

With `COC(=O)c1c(C(F)F)nc(C(F)(F)F)c(CSc2c(F)c(F)cc(F)c2F)c1CC(C)C` [Compound 186, Methyl 5-[(2,3,5,6-Tetrafluorophenyl)thiomethyl]-2-(difluoromethyl)-4-(2-methylpropyl)-6-(trifluoromethyl)-3-pyridinecarboxylate], the IC50 turned out to be 50 µM. On to `COC(=O)c1c(C(F)F)nc(C(F)(F)F)c(CSc2cccc3cccnc23)c1CC(C)C` [Compound 202, Methyl 5-[(Quinolin-8-yl)thiomethyl]-2-(difluoromethyl)-4-(2-methylpropyl)-6-(trifluoromethyl)-3-pyridinecarboxylate], for which the IC50 came to 80 µM. On the same count and under the same terms, to `COC(=O)c1c(C(F)F)nc(C(F)(F)F)c(CSc2cc(C(C)(C)C)cc(C(C)(C)C)c2)c1CC(C)C` [Compound 187, Methyl 5-[(3,5-Di-t-butylphenyl)thiomethyl]-2-(difluoromethyl)-4-(2-methylpropyl)-6-(trifluoromethyl)-3-pyridinecarboxylate] belongs 40 µM.

Staying with this experiment, now noted: Table 7, compounds of formula T-7; read-out: IC50.
For `COC(=O)c1c(C(F)F)nc(C(F)(F)F)c(SCc2cc(Cl)cc3c2OCOC3)c1CC(C)C` [Compound 246, Methyl 5[(6-chloro-1,3-benzodioxan-8-yl)methylthio]-2-(difluoromethyl)-4-(2-methylpropyl)-6-(trifluoromethyl)-3-pyridinecarboxylate], the IC50 stood at 30 µM. The same measure, in the same setting: to `COC(=O)c1c(C(F)F)nc(C(F)(F)F)c(SCc2c3ccccc3cc3ccccc23)c1CC(C)C` [Compound 227] belongs 30 µM. On the same count and under the same terms, as for `COC(=O)c1c(C(F)F)nc(C(F)(F)F)c(SCc2ccccc2Br)c1CC(C)C` [Compound 239], the figure is 45 µM.

The same experiment, now with this note: Table 8; read-out: IC50.
Take `CCOC(=O)c1c(C(F)(F)F)nc(C(F)F)c(C(F)c2ccc(C(C)C)cc2)c1-c1ccccc1` (stereo not drawn) [Compound 271]: the IC50 was 70 µM. On the same count and under the same terms, as for `CCOC(=O)c1c(C(F)(F)F)nc(C(F)F)c(C(F)c2ccc(Cl)cc2)c1-c1ccc(F)cc1` (stereo not drawn) [Compound 254], the figure is 55 µM; as for `C=CC(OC(=O)c1ccccc1)c1c(C(F)F)nc(C(F)(F)F)c(C(=O)c2ccc(OCC)cc2)c1-c1ccccc1` (stereo not drawn) [Compound 289], 55.3 µM.

Consider `OCc1c(C(F)(F)F)nc(C(F)F)c(CN2CCCC2)c1-c1ccccc1` [Compound 297], for which the IC50 was > 100 µM. On the same count and under the same terms, to `OCc1c(C(F)F)nc(C(F)(F)F)c(C(O)c2ccc(Cl)cc2)c1-c1ccccc1` (stereo not drawn) [Compound 269] belongs > 100 µM; to `OCc1c(C(F)F)nc(C(F)(F)F)c(COCc2ccccc2)c1-c1ccc(F)cc1` [Compound 281], > 100 µM. The same measure, in the same setting: to `O=C(c1ccc(Cl)cc1)c1c(C(F)(F)F)nc(C(F)F)c(CO)c1-c1ccccc1` [Compound 264] belongs 30 µM. Still for that read-out and setting: to `CC(C)c1ccc(C(O)c2c(C(F)F)nc(C(F)(F)F)c(CO)c2-c2ccccc2)cc1` (stereo not drawn) [Compound 275] belongs > 100 µM; to `CC(C)CC(O)c1c(C(F)F)nc(C(F)(F)F)c(C(=O)c2ccc(C(F)(F)F)cc2)c1-c1ccc(F)cc1` (stereo not drawn) [Compound 288], 19 µM. For `O=Cc1c(C(F)F)nc(C(F)(F)F)c(COCc2ccccc2)c1-c1ccc(F)cc1` [Compound 252], the IC50 came to 4.5 µM. `CCOC(=O)c1c(C(F)(F)F)nc(C(F)F)c(C(O)c2ccc3ccccc3c2)c1-c1ccccc1` (stereo not drawn) [Compound 278]: the IC50 amounted to 80 µM.
